The source made the active and inactive calls.
How the values were obtained:
[1] = molecular target: T1, CAAX prenyl protease 2 (Saccharomyces cerevisiae S288c, UniProt Q03530); type: biochemical
T1 sequence (Q03530 whole entry): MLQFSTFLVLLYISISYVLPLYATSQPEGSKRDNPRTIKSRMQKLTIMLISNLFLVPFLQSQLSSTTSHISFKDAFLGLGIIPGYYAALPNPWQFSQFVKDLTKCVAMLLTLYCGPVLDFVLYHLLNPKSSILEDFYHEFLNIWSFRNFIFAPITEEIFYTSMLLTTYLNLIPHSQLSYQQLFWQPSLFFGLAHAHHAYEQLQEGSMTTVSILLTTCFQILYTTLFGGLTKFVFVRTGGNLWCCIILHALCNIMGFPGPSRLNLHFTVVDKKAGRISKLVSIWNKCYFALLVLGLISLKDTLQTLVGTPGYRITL

[2] = molecular target: Trypsin (Sus scrofa, UniProt P00761); test: porcine trypsin inhibitors, dose response, selectivity assay for Rce1 protease inhibitor project, biochemical, quenched peptide fluorescence, cherry-pick (AID 488789)
Sequence of Trypsin (P00761 whole entry): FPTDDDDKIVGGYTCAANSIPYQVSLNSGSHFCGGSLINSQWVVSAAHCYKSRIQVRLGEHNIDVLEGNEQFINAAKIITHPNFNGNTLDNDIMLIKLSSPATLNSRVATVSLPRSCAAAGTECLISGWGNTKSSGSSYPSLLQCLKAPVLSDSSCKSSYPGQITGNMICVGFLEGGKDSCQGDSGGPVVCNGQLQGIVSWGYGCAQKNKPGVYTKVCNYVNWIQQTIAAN

[3] = molecular target: T2, Protein RecA (Mycobacterium tuberculosis, UniProt P9WHJ3); test: Fluorescence Cell-Free Homogeneous Dose Retest to Identify Inhibitors of RecA-Intein Splicing Activity. [Related pubchem assays (depositor defined):AID2097, AID2223, AID489010, AID492950]; type: functional
T2 sequence (P9WHJ3 whole entry): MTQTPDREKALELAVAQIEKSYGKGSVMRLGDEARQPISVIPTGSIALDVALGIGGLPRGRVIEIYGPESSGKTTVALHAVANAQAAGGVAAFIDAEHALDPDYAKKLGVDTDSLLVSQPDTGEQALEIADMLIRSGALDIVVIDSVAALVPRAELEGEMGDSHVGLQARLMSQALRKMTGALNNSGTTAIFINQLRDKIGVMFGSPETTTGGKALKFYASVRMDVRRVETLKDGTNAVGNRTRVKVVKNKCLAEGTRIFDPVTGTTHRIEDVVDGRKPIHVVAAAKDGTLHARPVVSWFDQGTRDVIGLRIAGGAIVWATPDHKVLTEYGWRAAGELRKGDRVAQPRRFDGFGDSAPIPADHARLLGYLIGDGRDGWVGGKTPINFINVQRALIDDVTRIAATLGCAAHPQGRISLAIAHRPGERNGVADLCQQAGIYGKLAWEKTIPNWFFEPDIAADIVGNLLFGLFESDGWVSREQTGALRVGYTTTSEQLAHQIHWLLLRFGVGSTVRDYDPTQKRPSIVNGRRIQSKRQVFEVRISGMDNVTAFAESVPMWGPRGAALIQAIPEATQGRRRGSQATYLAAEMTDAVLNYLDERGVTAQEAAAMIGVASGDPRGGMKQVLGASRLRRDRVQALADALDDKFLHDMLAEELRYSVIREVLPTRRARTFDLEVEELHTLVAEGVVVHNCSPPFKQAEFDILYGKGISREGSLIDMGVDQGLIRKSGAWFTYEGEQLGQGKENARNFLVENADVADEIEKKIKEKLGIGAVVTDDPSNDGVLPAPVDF

[4] = ADAM10 protease inhibitors, dose response, selectivity assay for ADAM17 exosite inhibitor project, biochemical, FRET peptide substrate, recombinant human ADAM10 (AID 743259);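 further: ADAM10 enzyme cleaving a FRET peptide substrate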
[5] = Luminescence Cell-Based Dose Retest to Confirm Inhibitors of Cancer Stem Cells. [Related pubchem assays (depositor defined):AID2717, AID2721]; type: functional; conditions: Homo sapiens
[6] = molecular target: T3, Replicative DNA helicase DnaB (Mycobacterium tuberculosis, UniProt P9WMR3); test: DnaB intein splicing inhibitors, dose response, biochemical, cell-free fluorescence (AID 449749); type: functional
T3 sequence (P9WMR3 whole entry): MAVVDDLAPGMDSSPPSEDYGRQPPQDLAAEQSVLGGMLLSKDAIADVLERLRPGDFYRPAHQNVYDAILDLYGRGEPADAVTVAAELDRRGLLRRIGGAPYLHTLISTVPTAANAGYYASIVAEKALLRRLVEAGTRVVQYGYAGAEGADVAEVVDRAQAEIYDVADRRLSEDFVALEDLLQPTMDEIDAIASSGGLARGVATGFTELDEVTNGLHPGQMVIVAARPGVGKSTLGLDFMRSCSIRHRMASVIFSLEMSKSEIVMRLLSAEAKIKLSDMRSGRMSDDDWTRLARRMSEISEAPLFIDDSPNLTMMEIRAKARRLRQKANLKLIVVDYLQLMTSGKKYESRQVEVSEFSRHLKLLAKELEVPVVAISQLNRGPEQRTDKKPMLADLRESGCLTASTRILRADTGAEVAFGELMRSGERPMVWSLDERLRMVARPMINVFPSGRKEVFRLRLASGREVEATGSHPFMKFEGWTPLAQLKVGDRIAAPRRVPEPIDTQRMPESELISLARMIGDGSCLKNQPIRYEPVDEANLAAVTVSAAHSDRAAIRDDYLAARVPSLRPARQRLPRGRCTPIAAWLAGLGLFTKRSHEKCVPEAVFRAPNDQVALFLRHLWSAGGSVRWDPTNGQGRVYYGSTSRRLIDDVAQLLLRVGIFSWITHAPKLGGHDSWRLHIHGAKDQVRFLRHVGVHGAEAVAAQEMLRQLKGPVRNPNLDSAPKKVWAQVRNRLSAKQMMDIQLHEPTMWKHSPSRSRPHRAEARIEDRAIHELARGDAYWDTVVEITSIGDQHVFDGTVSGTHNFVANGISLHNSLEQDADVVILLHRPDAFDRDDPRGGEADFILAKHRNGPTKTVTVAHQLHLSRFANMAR

[7] = molecular target: Disintegrin and metalloproteinase domain-containing protein 17 (Homo sapiens, UniProt P78536); test: exosite inhibitors of ADAM17, dose response, biochemical (AID 743260)
Sequence of Disintegrin and metalloproteinase domain-containing protein 17 (P78536 whole entry, the tested form may be a part): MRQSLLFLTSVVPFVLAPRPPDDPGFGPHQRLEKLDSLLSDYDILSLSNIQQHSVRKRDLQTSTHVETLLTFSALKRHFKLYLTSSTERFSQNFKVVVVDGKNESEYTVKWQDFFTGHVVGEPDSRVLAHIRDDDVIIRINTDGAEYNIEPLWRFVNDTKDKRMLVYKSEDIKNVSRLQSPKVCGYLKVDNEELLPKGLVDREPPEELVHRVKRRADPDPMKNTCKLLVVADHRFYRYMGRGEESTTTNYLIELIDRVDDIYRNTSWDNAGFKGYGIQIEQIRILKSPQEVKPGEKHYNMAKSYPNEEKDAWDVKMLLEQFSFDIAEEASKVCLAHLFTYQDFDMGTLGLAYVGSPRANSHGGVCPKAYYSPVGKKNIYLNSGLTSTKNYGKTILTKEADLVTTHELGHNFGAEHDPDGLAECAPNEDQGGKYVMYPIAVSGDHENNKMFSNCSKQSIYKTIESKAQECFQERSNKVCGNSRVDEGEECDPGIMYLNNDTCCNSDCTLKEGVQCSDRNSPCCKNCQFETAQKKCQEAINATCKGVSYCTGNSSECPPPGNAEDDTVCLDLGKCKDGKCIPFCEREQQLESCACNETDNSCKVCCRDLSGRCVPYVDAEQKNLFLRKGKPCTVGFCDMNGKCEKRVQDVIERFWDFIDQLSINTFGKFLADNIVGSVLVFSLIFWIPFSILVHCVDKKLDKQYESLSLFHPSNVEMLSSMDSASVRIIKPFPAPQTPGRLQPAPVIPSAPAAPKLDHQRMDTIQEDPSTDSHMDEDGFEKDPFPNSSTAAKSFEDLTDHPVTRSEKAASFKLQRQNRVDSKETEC

[8] = molecular target: T4, Alkaline phosphatase, tissue-nonspecific isozyme (Homo sapiens, UniProt P05186); test: human TNAP enzyme inhibitors, SAR follow-up, biochemical, luminescent, dose response (AID 1056)
T4 sequence (P05186 whole entry): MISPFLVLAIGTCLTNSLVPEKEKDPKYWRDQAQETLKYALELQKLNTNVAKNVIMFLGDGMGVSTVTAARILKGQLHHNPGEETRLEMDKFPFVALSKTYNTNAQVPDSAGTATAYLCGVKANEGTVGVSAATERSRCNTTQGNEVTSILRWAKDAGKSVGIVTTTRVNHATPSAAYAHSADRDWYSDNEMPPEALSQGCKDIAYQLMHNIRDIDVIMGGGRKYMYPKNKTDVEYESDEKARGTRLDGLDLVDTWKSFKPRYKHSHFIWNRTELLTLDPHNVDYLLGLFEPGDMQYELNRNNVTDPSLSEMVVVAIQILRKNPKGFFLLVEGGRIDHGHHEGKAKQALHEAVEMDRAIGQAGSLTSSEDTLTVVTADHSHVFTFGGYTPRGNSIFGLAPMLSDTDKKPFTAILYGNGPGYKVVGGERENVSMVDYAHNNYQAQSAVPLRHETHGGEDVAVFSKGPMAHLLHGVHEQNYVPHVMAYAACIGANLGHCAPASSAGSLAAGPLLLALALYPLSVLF

[9] = molecular target: Alkaline phosphatase, placental type (Homo sapiens, UniProt P05187); test: PLAP enzyme inhibitors, confirmation, biochemical, luminescence (AID 1512); type: functional
Sequence of Alkaline phosphatase, placental type (P05187 whole entry): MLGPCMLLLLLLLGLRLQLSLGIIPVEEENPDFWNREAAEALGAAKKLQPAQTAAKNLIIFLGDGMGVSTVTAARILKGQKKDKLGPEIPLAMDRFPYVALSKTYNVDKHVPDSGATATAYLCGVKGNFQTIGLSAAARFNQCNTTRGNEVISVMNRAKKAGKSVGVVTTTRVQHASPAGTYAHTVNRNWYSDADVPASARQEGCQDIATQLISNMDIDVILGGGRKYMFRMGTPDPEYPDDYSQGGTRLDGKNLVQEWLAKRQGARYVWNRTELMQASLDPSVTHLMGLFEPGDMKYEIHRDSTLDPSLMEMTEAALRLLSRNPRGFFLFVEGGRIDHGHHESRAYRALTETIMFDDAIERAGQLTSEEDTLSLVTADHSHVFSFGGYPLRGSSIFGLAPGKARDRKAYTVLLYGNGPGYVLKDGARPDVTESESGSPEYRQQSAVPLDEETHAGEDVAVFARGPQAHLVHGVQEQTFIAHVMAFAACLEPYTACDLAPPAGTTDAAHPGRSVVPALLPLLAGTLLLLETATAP

[10] = tested on: Vero; test: cells; type: functional, cell-based; conditions: Chlorocebus sabaeus
[11] = tested on: Vero; test: cells; type: functional; conditions: Chlorocebus sabaeus
[12] = inhibition of K1F phage lysis, E. coli UTI89, bacterial capsule biogenesis inhibitors, alamar blue (AID 488966); type: functional
[13] = molecular target: G-protein coupled receptor 55 (Homo sapiens, UniProt Q9Y2T6); test: GPR55 agonists via beta-arrestin recruitment, primary screen, imaging, U2OS cells, beta-arrestin-GFP redistribution (AID 1961); type: functional
Sequence of G-protein coupled receptor 55 (Q9Y2T6 whole entry): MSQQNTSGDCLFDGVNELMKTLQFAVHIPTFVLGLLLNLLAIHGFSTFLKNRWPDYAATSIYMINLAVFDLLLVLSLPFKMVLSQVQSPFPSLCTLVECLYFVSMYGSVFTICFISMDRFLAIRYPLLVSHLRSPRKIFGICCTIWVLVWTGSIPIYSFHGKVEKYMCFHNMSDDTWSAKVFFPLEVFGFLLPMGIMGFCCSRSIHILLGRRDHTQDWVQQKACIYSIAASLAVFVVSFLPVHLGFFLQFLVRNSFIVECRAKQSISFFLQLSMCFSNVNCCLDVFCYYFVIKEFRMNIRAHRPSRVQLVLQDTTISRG

N=c1c2c(ncn1Cc1ccco1)Oc1ccc3ccccc3c1C2c1ccccc1 (stereo not drawn)
AC50 [1]: 27.2 µM (active)
AC50 [2]: 7.73 µM (active)
EC50 [3]: 16.7 µM (active)
IC50 [4]: > 7.72 µM (active)
AC50 [5]: 2.09 µM (active)
AC50 [6]: 7.51 µM (active)
IC50 [7]: > 69.5 µM (inactive)

C=CCn1c(SCC(=O)c2ccc(O)c(O)c2)nnc1-c1ccc(C)cc1
IC50 [8]: > 100 µM (inactive)
IC50 [9]: 8.57 µM (active)

NCC1CCN(c2nc3ccccc3c3c2CCCC3)CC1
IC50 [10]: > 25 µM (active)
CC50 [11]: 19.2 µM (active)
IC50 [12]: > 150 µM (active)

CCN(CC)c1ccc(/C=N/OCC(=O)Nc2cccc(C)c2)cc1
EC50 [13]: > 32 µM (inactive)

Source: ChEMBL document CHEMBL1201862, “PubChem BioAssay data set” (2004)
